Laboratory results reported in ChEMBL document CHEMBL1201862, “PubChem BioAssay data set” (2004).
One block for each compound: values may come before it. The source made the active and inactive calls. Unless noted, the calls are words filed in the database; no cut-off is given here.

Legend:
[1] = target: Transitional endoplasmic reticulum ATPase (Homo sapiens, UniProt P55072, C522A); test: Luminescence counterscreen assay for p97 inhibitors: dose response biochemical high throughput screening assay to identify inhibitors of the C522A mutant p97 ATPase: synthesized compounds. [Related pubchem assays: 1481, 1517, 1551 ]
Transitional endoplasmic reticulum ATPase (Homo sapiens, UniProt P55072, C522A), sequence (P55072 2-806 C522A limits assumed): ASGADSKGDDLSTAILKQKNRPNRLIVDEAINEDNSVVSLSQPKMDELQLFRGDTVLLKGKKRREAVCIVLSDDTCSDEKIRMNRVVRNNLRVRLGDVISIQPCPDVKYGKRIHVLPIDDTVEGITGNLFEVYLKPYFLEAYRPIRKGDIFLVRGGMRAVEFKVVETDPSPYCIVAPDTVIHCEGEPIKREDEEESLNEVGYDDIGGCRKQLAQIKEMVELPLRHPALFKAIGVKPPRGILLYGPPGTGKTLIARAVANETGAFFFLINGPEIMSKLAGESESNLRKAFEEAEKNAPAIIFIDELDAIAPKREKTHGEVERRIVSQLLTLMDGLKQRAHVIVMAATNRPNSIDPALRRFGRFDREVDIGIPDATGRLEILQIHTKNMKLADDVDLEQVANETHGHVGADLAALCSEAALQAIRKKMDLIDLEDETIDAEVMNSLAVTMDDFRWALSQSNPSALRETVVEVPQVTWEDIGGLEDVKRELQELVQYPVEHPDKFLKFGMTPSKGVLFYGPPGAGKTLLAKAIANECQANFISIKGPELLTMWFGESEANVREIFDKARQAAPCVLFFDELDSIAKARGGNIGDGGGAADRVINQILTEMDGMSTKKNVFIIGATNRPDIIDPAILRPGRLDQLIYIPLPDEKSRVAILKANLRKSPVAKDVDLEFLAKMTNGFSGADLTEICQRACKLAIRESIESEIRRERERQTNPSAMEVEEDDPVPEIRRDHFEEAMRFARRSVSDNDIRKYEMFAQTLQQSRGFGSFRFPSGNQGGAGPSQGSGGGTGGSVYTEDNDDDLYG

[2] = target: Transitional endoplasmic reticulum ATPase (Homo sapiens, UniProt P55072); test: Luminescence dose response biochemical high throughput screening assay for inhibitors of the p97 ATPase: synthesized compounds. [Related pubchem assays: 1481, 1517 ]
Transitional endoplasmic reticulum ATPase (Homo sapiens, UniProt P55072), sequence (P55072 whole entry): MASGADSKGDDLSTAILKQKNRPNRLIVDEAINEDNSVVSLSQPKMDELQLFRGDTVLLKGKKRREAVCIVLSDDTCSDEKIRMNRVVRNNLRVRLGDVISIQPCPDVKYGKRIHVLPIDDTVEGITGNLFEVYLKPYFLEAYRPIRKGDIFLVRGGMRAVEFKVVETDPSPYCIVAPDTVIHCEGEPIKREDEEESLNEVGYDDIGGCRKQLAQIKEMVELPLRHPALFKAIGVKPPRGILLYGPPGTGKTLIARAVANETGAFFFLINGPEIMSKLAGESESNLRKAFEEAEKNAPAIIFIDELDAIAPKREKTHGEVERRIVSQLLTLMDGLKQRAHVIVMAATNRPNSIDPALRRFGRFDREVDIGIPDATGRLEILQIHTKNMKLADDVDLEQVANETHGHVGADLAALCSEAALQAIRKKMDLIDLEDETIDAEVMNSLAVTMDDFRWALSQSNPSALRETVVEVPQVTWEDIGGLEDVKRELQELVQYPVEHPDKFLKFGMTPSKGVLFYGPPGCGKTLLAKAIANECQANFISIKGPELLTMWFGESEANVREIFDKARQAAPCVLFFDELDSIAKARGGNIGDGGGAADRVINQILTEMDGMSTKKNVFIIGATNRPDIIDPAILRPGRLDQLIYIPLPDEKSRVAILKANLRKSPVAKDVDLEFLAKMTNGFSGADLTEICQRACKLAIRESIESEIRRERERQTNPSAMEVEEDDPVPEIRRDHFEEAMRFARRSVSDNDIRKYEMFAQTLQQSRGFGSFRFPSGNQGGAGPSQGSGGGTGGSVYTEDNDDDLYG

[3] = target: T1, Neuropeptide Y receptor type 1 (Homo sapiens, UniProt P25929); test: NPY-Y1 receptor antagonist potency, dose response, cell-based (AID 1277); assay type: functional
T1 sequence (P25929 whole entry): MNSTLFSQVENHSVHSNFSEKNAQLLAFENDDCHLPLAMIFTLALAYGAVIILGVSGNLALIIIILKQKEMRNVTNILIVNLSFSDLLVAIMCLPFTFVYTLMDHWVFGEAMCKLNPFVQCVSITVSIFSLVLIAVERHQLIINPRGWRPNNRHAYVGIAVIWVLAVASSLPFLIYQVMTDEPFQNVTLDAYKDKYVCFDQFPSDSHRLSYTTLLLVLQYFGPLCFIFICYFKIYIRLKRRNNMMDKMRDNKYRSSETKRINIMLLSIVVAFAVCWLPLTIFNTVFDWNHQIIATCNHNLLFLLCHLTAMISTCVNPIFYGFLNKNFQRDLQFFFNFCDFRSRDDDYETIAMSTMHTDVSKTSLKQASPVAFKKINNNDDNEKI

[4] = target: T2, Neuropeptide Y receptor type 2 (Homo sapiens, UniProt P49146); test: NPY-Y2 antagonist potency, selectivity check, dose response, counter-screen for NPY-Y1 antagonist project, cell-based (AID 1278); assay type: functional
T2 sequence (P49146 whole entry): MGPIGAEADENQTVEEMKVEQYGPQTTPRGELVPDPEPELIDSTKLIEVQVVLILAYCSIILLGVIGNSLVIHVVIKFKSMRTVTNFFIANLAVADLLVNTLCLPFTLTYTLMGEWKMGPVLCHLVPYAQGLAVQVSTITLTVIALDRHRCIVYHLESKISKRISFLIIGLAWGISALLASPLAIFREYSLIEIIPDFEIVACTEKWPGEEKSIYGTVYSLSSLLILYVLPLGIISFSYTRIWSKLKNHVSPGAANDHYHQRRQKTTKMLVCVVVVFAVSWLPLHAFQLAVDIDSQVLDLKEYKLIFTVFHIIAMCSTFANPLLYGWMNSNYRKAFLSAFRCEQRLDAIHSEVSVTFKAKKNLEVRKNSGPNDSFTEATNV

[5] = target: ATP-sensitive inward rectifier potassium channel 1 (Homo sapiens, UniProt P48048); test: ROMK inhibition by analog compounds, SAR follow-up, cell-based, thallium flux, analog library (AID 435017); assay type: functional
ATP-sensitive inward rectifier potassium channel 1, sequence (P48048 whole entry): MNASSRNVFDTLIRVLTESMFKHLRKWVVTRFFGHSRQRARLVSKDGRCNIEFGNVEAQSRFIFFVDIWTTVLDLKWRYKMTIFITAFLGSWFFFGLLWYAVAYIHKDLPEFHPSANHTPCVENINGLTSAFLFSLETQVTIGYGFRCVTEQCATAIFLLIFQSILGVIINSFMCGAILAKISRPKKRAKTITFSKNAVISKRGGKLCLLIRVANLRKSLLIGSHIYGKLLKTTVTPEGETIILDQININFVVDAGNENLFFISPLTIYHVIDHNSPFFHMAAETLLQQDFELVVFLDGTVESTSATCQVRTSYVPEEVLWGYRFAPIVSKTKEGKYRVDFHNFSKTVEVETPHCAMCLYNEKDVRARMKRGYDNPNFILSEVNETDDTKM

Bcl-2-related protein A1 [6] = target: T3, Bcl-2-related protein A1 (Mus musculus, UniProt Q07440); test: Bfl-1 inhibitors blocking BH3 peptide binding, confirmation, biochemical, TR-FRET, mouse Bfl-1 (AID 621);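 further: TR-FRET binding of GST-Bfl-1 to FITC-labelled Bid peptide via terbium antibody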
T3 sequence (Q07440 whole entry): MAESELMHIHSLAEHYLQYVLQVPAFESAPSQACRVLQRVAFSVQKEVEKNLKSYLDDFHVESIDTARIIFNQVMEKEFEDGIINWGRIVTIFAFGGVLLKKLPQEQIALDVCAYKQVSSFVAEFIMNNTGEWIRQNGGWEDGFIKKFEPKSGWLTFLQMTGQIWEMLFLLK

[7] = target: T4, RNA-binding protein pos-1 (Caenorhabditis elegans, UniProt G5EF15); test: inhibitors of POS-1/mex-3 RNA binding, dose response, biochemical, fluorescence polarization (AID 1964);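 further: purified POS-1 fused to maltose binding protein made in E. coli; potency of compounds blocking POS-1 binding to fluorescent RNA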
T4 sequence (G5EF15 whole entry): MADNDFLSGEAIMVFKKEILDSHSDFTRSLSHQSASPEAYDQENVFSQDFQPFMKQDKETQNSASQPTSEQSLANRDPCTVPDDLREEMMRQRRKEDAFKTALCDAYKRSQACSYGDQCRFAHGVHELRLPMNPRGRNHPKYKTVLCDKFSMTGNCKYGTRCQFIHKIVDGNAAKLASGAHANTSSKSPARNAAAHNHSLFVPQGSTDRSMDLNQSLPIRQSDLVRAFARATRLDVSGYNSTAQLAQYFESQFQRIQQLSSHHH

Bcl-2-related protein A1 [8] = target: T3, Bcl-2-related protein A1; test: Bfl-1 inhibitors, primary screen, biochemical, fluorescence polarization, FITC-Bid, mouse (AID 432)
[9] = target: T5, Zinc finger protein mex-5 (Caenorhabditis elegans, UniProt Q9XUB2); test: MEX-5/TCR-2 RNA interaction inhibitors, dose response, biochemical, C. elegans, fluorescence polarization (AID 1960)
T5 sequence (Q9XUB2 whole entry): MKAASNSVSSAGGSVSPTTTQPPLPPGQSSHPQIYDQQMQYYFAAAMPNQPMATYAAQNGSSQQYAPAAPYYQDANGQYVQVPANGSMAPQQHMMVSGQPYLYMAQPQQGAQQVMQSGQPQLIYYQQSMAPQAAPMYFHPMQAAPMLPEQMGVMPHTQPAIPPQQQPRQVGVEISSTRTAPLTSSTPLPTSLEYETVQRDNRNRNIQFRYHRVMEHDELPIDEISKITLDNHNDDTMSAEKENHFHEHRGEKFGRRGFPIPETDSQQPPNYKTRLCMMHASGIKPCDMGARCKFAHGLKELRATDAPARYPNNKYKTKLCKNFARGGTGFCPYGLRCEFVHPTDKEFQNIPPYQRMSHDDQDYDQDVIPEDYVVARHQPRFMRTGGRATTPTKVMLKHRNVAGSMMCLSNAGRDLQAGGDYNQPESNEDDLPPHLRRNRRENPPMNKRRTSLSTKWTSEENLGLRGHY

14-3-3 protein gamma = 14-3-3 protein gamma (Homo sapiens, UniProt P61981); test: modulators of 14-3-3 gamma client binding – dose response (AID 711); assay type: functional
14-3-3 protein gamma, sequence (P61981 whole entry): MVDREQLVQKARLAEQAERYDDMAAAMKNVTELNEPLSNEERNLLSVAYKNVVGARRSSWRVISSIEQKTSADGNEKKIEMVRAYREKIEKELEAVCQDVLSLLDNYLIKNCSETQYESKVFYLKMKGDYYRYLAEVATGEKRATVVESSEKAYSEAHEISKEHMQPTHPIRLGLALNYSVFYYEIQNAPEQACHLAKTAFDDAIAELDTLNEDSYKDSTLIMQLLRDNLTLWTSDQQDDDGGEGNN

- IC50 [1]: > 50 µM (not active)
- IC50 [2]: > 50 µM (not active)
Compound: CCOC(=O)/C(C#N)=C/c1c2ccccc2cc2ccccc12

- IC50 [3]: > 35 µM (not active)
- IC50 [4]: > 35 µM (not active)
Compound: CNCc1cc(Cl)cc(OC)c1OC(C)C

- IC50 [5]: 0.273 µM (active)
Compound: O=[N+]([O-])c1ccc(CN2CCOCCOCCN(Cc3ccc([N+](=O)[O-])cc3)CCOCC2)cc1

- IC50 (Bcl-2-related protein A1 [6]): > 100 µM (not active)
- EC50 [7]: 7.15 µM (inconclusive)
- IC50 (Bcl-2-related protein A1 [8]): > 100 µM (not active)
- EC50 [9]: 8.29 µM (inconclusive)
- IC50 (14-3-3 protein gamma): > 50 µM (not active)
Compound: Cc1ccc(C2C3CN(C(C)C)CC=C3C(C#N)=C(N)C2(C#N)C#N)cc1 (stereo not given)
